Counter-ions that a name gives are not always drawn. Like-named read-outs stand apart in the source and are kept apart here.
Tests used:
tau phosphorylation [1] = system: tau phosphorylation; parameters: method as in PMID 25331948; conditions: only observed at 10 μM; cited from earlier work
Aβ40 and Aβ42 = system: Aβ40 and Aβ42; parameters: method as in PMID 25331948; conditions: 2 mg/kg; cited from earlier work
GPCRs = conditions: profiled against many of the same GPCRs; cited from earlier work
tau phosphorylation [2] = system: tau phosphorylation; parameters: method as in PMID 32063836, PMID 28502066; conditions: cited from earlier work
[3] = system: BV2 (mouse microglia) immortalized cell line; test: Microglial cell viability (cell count, nuclear measures), BV2; type: cell-based; conditions: 10-point dose-response up to 20 or 40 μM, 24 or 48 h
Description: (§1) Microglial viability and phagocytosis studies: The pHrodo-myelin phagocytosis/cell viability assay, modified based on a published method, was run with BV2 (mouse microglia) and HMC3 (human microglia) immortalized cell lines in the Chu lab at IUSM. The 384-well plate high content analysis assay with BV2 and HMC3 microglial cell lines is used to quantify phagocytosis and cell viability simultaneously. High content imaging is performed with the ArrayScan automatic imaging system and imaging analysis done with the system’s software. Cells are treated with compounds for total 48 hours including final 20 hours seeded with pHrodo-myelin (labeled phagocytosis ligand, purified from mouse brain), then cells are stained with Hoechst- […]
(§2) Three measurements are extracted from the assay: 1) phagocytosis signal by mean total phagocytosis spot intensity per cell, 2) total cell counts per well as the main measurement of cell viability, and 3) mean average nuclear intensity per cell as profiling of cell health since apoptotic cells showing nuclear intensity increase (early apoptosis) and decrease (later apoptosis), respectively. […]
(§3) dose-response follow-up in duplicate or triplicate. These compounds were initially dosed up to […]

[4] = system: HMC3 (human microglia) immortalized cell line; conditions: 10 μM single concentration, normalized to control (DMSO) treated cells; in % (unit assumed); cited from earlier work
cellular system = system: cellular system; parameters: method as in column References for potency and dosing (the 5th table c13); conditions: published data; References for potency and dosing; cited from earlier work
[5] = system: HMC3 (human microglia) immortalized cell line; test: pHrodo-myelin phagocytosis assay, HMC3; type: cell-based; conditions: 10-point dose-response up to 20 or 40 μM, 24 or 48 h
Description: as §1, §2, §3

[6] = system: HMC3 (human microglia) immortalized cell line; test: Microglial cell viability (cell count, nuclear measures), HMC3; type: cell-based; conditions: 10-point dose-response up to 20 or 40 μM, 24 or 48 h
Description: Microglial viability and phagocytosis studies: The pHrodo-myelin phagocytosis/cell viability assay, modified based on a published method, was run with BV2 (mouse microglia) and HMC3 (human microglia) immortalized cell lines in the Chu lab at IUSM. The 384-well plate high content analysis assay with BV2 and HMC3 microglial cell lines is used to quantify phagocytosis and cell viability simultaneously. High content imaging is performed with the ArrayScan automatic imaging system and imaging analysis done with the system’s software. Cells are treated with compounds for total 48 hours including final 20 hours seeded with pHrodo-myelin (labeled phagocytosis ligand, purified from mouse brain), then cells are stained with Hoechst-33342 one hour before the imaging. Three measurements are extracted from the assay: 1) phagocytosis signal by mean total phagocytosis spot intensity per cell, 2) total cell counts per well as the main measurement of cell viability, and 3) mean average nuclear intensity per cell as profiling of cell health since apoptotic cells showing nuclear intensity increase (early apoptosis) and decrease (later apoptosis), respectively.
Based on the single-concentration data, several compounds were selected for 10-point dose-response follow-up in duplicate or triplicate. These compounds were initially dosed up to 20 μM for 24h. […]

[7] = system: HMC3 (human microglia) immortalized cell line; conditions: cited from earlier work; for Phagocytosis HMC3: 10 μM single concentration, normalized to control (DMSO) treated cells
[8] = aqueous, neutral pH (7.4); cited from earlier work
CYP3A43 = conditions: published affinity; ref PubMed 10801218, 1526623; cited from earlier work
[9] = system: BV2 (mouse microglia) immortalized cell line; conditions: 10 μM single concentration, normalized to control (DMSO) treated cells; in % (unit assumed); cited from earlier work
[10] = system: BV2 (mouse microglia) immortalized cell line; test: pHrodo-myelin phagocytosis assay, BV2; type: cell-based; conditions: 10-point dose-response up to 20 or 40 μM, 24 or 48 h
Description: as §1, §2, §3

[11] = system: BV2 (mouse microglia) immortalized cell line; conditions: cited from earlier work; for Phagocytosis BV2: 10 μM single concentration, normalized to control (DMSO) treated cells
ALK = system: ALK; parameters: method as in PubMed 24819116, 25733882; conditions: published affinity; ref PubMed 24819116, 25733882; cited from earlier work
ERBB3 (HER3) = system: ERBB3 (HER3); parameters: method as in PubMed 20145185; conditions: published affinity; ref PubMed 20145185; cited from earlier work
[12] = 10 μM, murine immortalized microglial cells
[13] = 10 μM, human immortalized microglial cells

Structure (SMILES) | Toxicity in dose-response follow-up, BV2 [3] | Cell number HMC3 [4] | DNA intensity HMC3 [4] | Nuclear size HMC3 [4] | Reported as cell active (<10 μM) (cellular system) | Phagocytosis in dose-response follow-up, HMC3 [5] | Phagocytosis HMC3 [7] | Kinetic solubility [8] | Cell number BV2 [9] | DNA intensity BV2 [9] | Nuclear size BV2 [9] | Phagocytosis in dose-response follow-up, BV2 [10] | Phagocytosis BV2 [11] | further results
COc1ccc(-c2cc3nccn3c(Nc3ncccc3C(N)=O)n2)cc1OC [BAY61‐3606] |  |  |  |  |  |  |  |  |  |  |  |  |  | Tau phosphorylation (tau phosphorylation [1]): indirectly reduces tau phosphorylation; Detectable levels of Aβ40 and Aβ42 (Aβ40 and Aβ42): significant reduction
COc1cc(-c2cc3ncccc3c(O[C@H](C)[C@H]3CNC(=O)C3)n2)cc(OC)c1OC [BI1002494] |  |  |  |  |  |  |  |  |  |  |  |  |  | GPCR affinity (published profiling) (GPCRs): lacked this activity
O=c1c2ccccc2[se]n1-c1ccccc1 [Ebselen] |  |  |  |  |  |  |  |  |  |  |  |  |  | Tau phosphorylation (tau phosphorylation [2]): decrease tau phosphorylation
CC(=O)N1CCN(c2ccc(OCC3COC(Cn4ccnc4)(c4ccc(Cl)cc4Cl)O3)cc2)CC1 (stereo not drawn) [UNC10100724A, Ketoconazole] | without notable toxicity | 125.5 | 100.1 | 96.3 | Y (Published data supports that the compound is active in a cellular system when dosed at 10 μM (Y/N)) | stimulation of phagocytosis was observed | 144.4 | 119.6 µM | 129.7 | 104.7 | 103.8 | stimulation of phagocytosis was observed | 280.0 | Toxicity in dose-response follow-up, HMC3 [6]: without notable toxicity; Reported on-target biochemical potency, CYP3A43 (CYP3A43): 64000 nM; Stimulation of mouse microglial phagocytosis at 10 μM (>150% control) [11, 12]: Y (The compound was found to stimulate phagocytosis (response threshold: >150% control) when murine immortalized microglial cells were dosed at 10 μM (Y: yes))
COc1cc2c(cc1OC)C(=O)C(CC1CCN(Cc3ccccc3)CC1)C2 (stereo not drawn) [UNC10240506B, Donepezil Hydrochloride (E2020)] |  | 130.2 | 98.0 |  | Y (Published data supports that the compound is active in a cellular system when dosed at 10 μM (Y/N)) |  |  |  |  | 104.5 |  |  |  | 
C[C@H]1Oc2cc(cnc2N)-c2c(nn(C)c2C#N)CN(C)C(=O)c2ccc(F)cc21 [UNC10244898A, Lorlatinib] | Some toxicity was observed | 127.2 | 89.2 | 110.3 | Y (Published data supports that the compound is active in a cellular system when dosed at 10 μM (Y/N)) | inhibition/stimulation of phagocytosis occurred at a much lower concentration | 37.8 | 172 µM | 117.2 | 110.1 | 102.7 | inhibition/stimulation of phagocytosis occurred at a much lower concentration | 200.3 | Reported on-target biochemical potency, ALK (ALK): <0.07 nM; Toxicity in dose-response follow-up, HMC3 [6]: Some toxicity was observed; Inhibition of human microglial phagocytosis at 10 μM (<70% control) [7, 13]: Y (The compound was found to inhibit phagocytosis (response threshold: <70% control) when human immortalized microglial cells were dosed at 10 μM (Y: yes)); Stimulation of mouse microglial phagocytosis at 10 μM (>150% control) [11, 12]: Y (The compound was found to stimulate phagocytosis (response threshold: >150% control) when murine immortalized microglial cells were dosed at 10 μM (Y: yes))
CNC(=O)CN1CCC(Oc2cc3c(Nc4cccc(Cl)c4F)ncnc3cc2OC)CC1 [UNC10302865A, Sapitinib (AZD8931)] | Some toxicity was observed at the highest concentrations | 132.1 | 90.8 | 105.8 | Y (Published data supports that the compound is active in a cellular system when dosed at 10 μM (Y/N)) | stimulation of microglial phagocytosis | 152.7 | 114.6 µM | 102.4 | 101.0 | 110.1 | inhibition of phagocytosis | 68.8 | Reported on-target biochemical potency, ERBB3 (HER3) (ERBB3 (HER3)): 4 nM; Stimulation of human microglial phagocytosis at 10 μM (>150% control) [7, 13]: Y (The compound was found to stimulate phagocytosis (response threshold: >150% control) when human immortalized microglial cells were dosed at 10 μM (Y: yes)); Inhibition of mouse microglial phagocytosis at 10 μM (<70% control) [11, 12]: Y (The compound was found to inhibit phagocytosis (response threshold: <70% control) when murine immortalized microglial cells were dosed at 10 μM (Y: yes))
